According to a melting point compilation (Tetko et al.; mined from patent text by program, amines drawn as free bases though some values may be those of a salt):

Compound | melting point [°C]
NC(=O)c1c(Cl)c(-c2ccccc2)n2c1CN(S(=O)(=O)c1ccc(Cl)cc1)CC2 | 123 to 125
CC(C)N1CCOC(CN2C(=O)C3(COc4cc5c(cc43)OCCO5)c3ccccc32)C1 (centres undefined) | 102 to 125
COc1ccc(-c2cnc(-c3ccc(F)cc3)nc2-c2ccc(OC)cc2)cc1 | 129 to 130
O=C(Nc1ccccc1Oc1ccc(Cl)cc1)C1CCN(C(=O)c2ccccc2)CC1 | 158 to 160
CC(C)(C)OC(=O)NCC(=O)N1[C@@H](C(=O)OC(C)(C)C)CC[C@H]1c1ccccc1 (racemic) | 112
Cc1ccc2cc(C)[nH]c2c1 | 74 to 76
Cc1cc2cc(OCCC#N)ccc2o1 | 73 to 76
CCn1ncc2nc(C(=O)O)c(C)nc21 | 148 to 149
Cc1[nH]c2ccccc2c1C1=C(c2c(C)[nH]c3ccccc23)C(=O)N(C)C1=O | > 290
Cc1ccc(S(=O)(=O)Nc2ccc3nnc(C(=O)O)c(O)c3c2)cc1 | 272 to 273
CC1(C)CCC(C)(C)c2cc(C#CCO)ccc21 | 84 to 85
C=Cc1cccc(C(=O)NC(Nc2c(Nc3cccnc3)c(=O)c2=O)C(C)(C)C)c1 (centres undefined) | 209 to 210
COCOc1cccc(F)c1C=NO | 102 to 104
N#Cc1cc(O)n(-c2ccccc2)n1 | 190
COC(=O)C(C(=O)Cc1ccccc1)C1c2ccccc2C(=O)N1c1ccc2ccc(Cl)nc2n1 (centres undefined) | 185
O=C(Nc1ccc2oc3c(c2c1)CCCC3)c1ccc([N+](=O)[O-])cc1 | 279 to 280
CC(C)C(=O)OC1(C(=O)CO)CCC2C3CC(C)C4=CC(=O)CCC4(C)C3C(O)CC21C (centres undefined) | 191
COc1ccc(C2CN(C)Cc3c(N)cccc32)cc1OC (centres undefined) | 143 to 144
O=c1[nH]c2ccc([N+](=O)[O-])cc2c(O)c1[N+](=O)[O-] | 197 to 198
COC(=O)c1nc(N(C)C2CCCCC2)ccc1Oc1nc(OC)cc(OC)n1 | 116 to 118
O=c1cc(C2CCCC2)oc2ccc(OCCCCCCCl)cc12 | 125 to 126
O=C1CN(c2ccc(Cc3ccccc3)cc2)C(=S)N1c1ccc([N+](=O)[O-])cc1 | 209
Cc1cc(NC(=O)c2cccnc2Cl)[nH]n1 | > 300
NCCC1Cc2ccc(C3=NNC(=O)CC3)cc2C1 (centres undefined) | 189 to 190
CC(C)(C)NC(=O)[C@@H]1CCCN1C(=O)[C@@H](O)[C@@H](C(=O)[C@H](CC(N)=O)NCc1cnc2ccccc2n1)C(N)c1ccccc1 (some centres undefined) | 116 to 119

Compound | melting point [°C]
Cc1ccccc1C=C1CCn2c1nc1ccc(CO)cc1c2=O | 222 to 224
NCCCN(CC1COc2ncccc2O1)c1ccc(Cl)nn1 (centres undefined) | 101
Clc1cc(CCc2ccccn2)c2oc(-c3nccc4ccccc34)nc2c1 | 142 to 143
O=C1c2ccccc2-c2c1c1ccccc1c(=O)n2CCCCO | 165 to 166
COC(=O)c1cc(N2CCN([C@H]3CC[C@@H](c4cn(C)c5ccc(C#N)cc54)CC3)CC2)c2ncccc2c1 | 153 to 155
O=C(CCc1nc(-c2ccccn2)no1)NC1CCN(Cc2ccc(F)c(Cl)c2)CC1 | 150
CN1CCN(CNC(=O)c2cccc(Nc3nccc(-c4cccnc4)n3)c2)CC1 | 220 to 224
Cn1nc(-c2cnc3[nH]cc(C(=O)NCC4CC4)c3n2)c2ccc(F)cc21 | 319 to 322
COc1ccc(-n2c(Br)ccc2-c2ccc(S(N)(=O)=O)cc2)cc1 | 121 to 123
CC(=O)NCC1CN(c2ccc(N3CC4CCCN(C(=O)COC(C)=O)C4C3)c(F)c2)C(=O)O1 (centres undefined) | 113 to 116
CC(C)(C)c1csc(NC(=O)c2ccccc2)c1C#N | 130
O=C(Nc1n[nH]c(-c2ccc(F)cc2)c1-c1ccncc1)C(F)(F)F | 260 to 265
COc1ccc(/C=C(\C#N)c2cccc(Br)c2)cc1OC1CCCC1 | 90 to 91.5
COc1c(C2CCN(CCCCNC(=O)c3ccc(-c4ccc(Cl)cc4)cc3)CC2)ccc2ccccc12 | 197
Nc1c(-c2ccccc2)nn2c1ccc1ccccc12 | 255 to 258
O=CNN(Cc1ccccc1[N+](=O)[O-])c1ccccc1 | 140 to 142
CCN1C(=O)N(c2ccc(C#N)c(C(F)(F)F)c2)C(=O)C1(CO)CO | 155 to 156
CCCCCc1ccc(C(=O)NO)cc1 | 89.9 to 90.1
COc1ccc2c(c1[N+](=O)[O-])CN(C(=O)C(F)(F)F)CC(=O)N2C | 71 to 74
CCCCOC(=O)c1c(N)c2cccnc2n(CC)c1=O | 117 to 120
CSCCOc1c(-c2ccc(S(C)(=O)=O)cc2)cnn(CC(F)(F)F)c1=O | 103 to 105
CN(CC(=O)c1cccn1Cc1ccc(Cl)cc1[N+](=O)[O-])Cc1ccccc1 | 90 to 93
CCNCc1cnc2c(C)c(NC(=O)c3ccc(OC[C@@H]4CCCO4)cc3)ccc2c1 | 149 to 151
COC(=O)C1CCCN1C(=O)c1ccccc1 (centres undefined) | 88.5 to 90
Cc1cccc(Nc2nc(-c3cccc(C#N)c3)c(-n3cncn3)s2)n1 | 236 to 237

Compound | melting point [°C]
O=c1[nH]c2cccc(OCC(O)CNCCc3ccc(-n4c(CCC5CCCC5)nc5cccnc54)cc3)c2[nH]1 (centres undefined) | 115 to 117
O=C(C1CC=CCC1)N1c2ccccc2CCC1CN1CCN(c2cccc3[nH]ccc23)CC1 (centres undefined) | 156 to 160
CN(C(=O)NCCCl)c1ccc(C(O)(C(F)(F)F)C(F)(F)F)cc1 | 120 to 121
CSc1cc2c(cc1C(F)(F)F)N(C(=O)Nc1ccc(-c3csc(-c4ccncc4)n3)cc1)CC2 | 253 to 254
O=C(Nc1ccc2c(c1)nc1n2CCCC1)c1cc2cccnc2n1Cc1ccccc1 | 233 to 235
CC(C(=O)O)c1ccc2c(c1)C(=O)Cc1c(Cl)cccc1S2 (centres undefined) | 163 to 164
O=C(O)C/C=C/CC(=O)O | 197 to 198
CC1(C)Nc2ncc(I)cc2N(Cc2cc(F)ccc2F)C1=O | 198 to 201
CCSC(c1ccc(Cl)cc1Cl)C(C(O)C(C)(C)CF)n1cncn1 (centres undefined) | 182
CN1CCN(Cc2nc3ccccc3[nH]2)CC1 | 179 to 183
CCOP(=O)(/C=C/c1cn(-c2ccccc2)nc1OCc1ccc(OCc2nc(-c3ccc(C)c(C(=O)O)c3)oc2CC)c(OC)c1)OCC | 165 to 166
Clc1ccc2c(c1)C(c1ccco1)=NCC1CSCCN21 (centres undefined) | 138 to 140
NC(=O)CCCOc1cccc(-c2n[nH]c3c2Cc2ccccc2-3)c1 | 200 to 202
O=C(O)CCc1c(C(=O)O)[nH]c2cc(I)cc(I)c12 | 280 to 282
ON=C1CSc2ccccc2CN1 | 208 to 210
Cc1ccc(S(=O)(=O)NC(=O)C2C(=O)CC(c3ccccc3)CC2=O)cc1 (centres undefined) | 164 to 166
O=C(On1nnc2ccccc21)c1ccc2c(c1)OC(c1ccccc1)(c1ccccc1)O2 | 158 to 160
O=C(O)c1ccc(OCCNC(=O)C2Cc3ccccc3N2S(=O)(=O)c2ccc(-c3ccc(F)cc3Cl)cc2)nc1 (centres undefined) | 88 to 98
COc1ccc(CCNc2nc(O)c(NC(=O)c3ccco3)c(O)n2)cc1 | > 250
CC(=O)N1CCC(COCc2cc(C(F)(F)F)cc(C(F)(F)F)c2)(c2ccccc2)CC1 | 64 to 65
COCCOC(=O)NC(=O)CCl | 97 to 99
CC(C)(C)c1ccc(CNC(=S)NC(C)(C)c2ccc(NS(C)(=O)=O)cc2)cc1 | 161 to 164
CC(=O)N(C(C)=O)c1ncc(C#Cc2cnn3c(C(F)(F)F)cc(-c4ccc(C(F)(F)F)cc4)nc23)cn1 | 253 to 254
O=C(O)c1cc(OCc2ccccc2)cc(OCc2ccccc2)c1 | 211 to 213
OCCCNC1=Nc2ccccc2C1(O)c1cccc(Cl)c1 (centres undefined) | 164 to 165

Compound | melting point [°C]
Cc1c(C)c2c(c(C)c1OCc1ccccc1)C(c1ccc(N(C)C)cc1)C(C)(C)O2 (centres undefined) | 110 to 112
O=C(OCCO)c1ccc(Cl)c([N+](=O)[O-])c1 | 102 to 104
CCOP1(=O)OCC(C)(C)c2cc(OS(C)(=O)=O)ccc2O1 (centres undefined) | 113 to 115
C=C(c1ccc(Cl)cc1)C1(n2ccnc2)CC1 | 94 to 95
C[C@H](NC(=O)[C@H](Cc1ccccc1)NC(=O)OCc1ccccc1)C(=O)O | 160 to 164
CC(C=NO)n1nnc2ccc(Oc3cc(F)c(C(F)(F)F)c(Cl)c3)cc21 (centres undefined) | 148 to 151
CC(C)(O)c1cccc(-c2ccc3nc(-c4ccc(Cl)cc4)c(F)n3c2)c1 | 174 to 175
COc1ccc(CSc2nnc(-c3ccc4[nH]ncc4c3)o2)cc1C#N | 192 to 193
Cc1ncc2n1-c1ccc(Cl)cc1C(c1ccccc1F)N(C)C2 (centres undefined) | 156 to 158
CCC12CC(O)C(O)(c3ccccc3)CC1CC(O)c1cc(O)ccc12 (centres undefined) | 185 to 187
CC1=CN(c2ccc(Cl)c(Cl)c2)SC1 | 160 to 161
CC(C(=O)O)c1ccc2c(c1)C(=O)Cc1cc(O)ccc1S2 (centres undefined) | 216 to 217
COc1ccc(C2=NCc3nnc(CN(C)C)n3-c3ccc(Cl)cc32)cc1 | 224 to 225
COc1ccc2c(c1)CCC1(C)CC(=O)NN=C21 (centres undefined) | 215
CC1(c2ccccc2)C(=O)Nc2cc(Br)cc(Br)c2C1=O (centres undefined) | 256 to 257
Cc1c(SCCN2CCOCC2)ccnc1CSc1nc2ccccc2n1CCO | 141 to 143
CC(=O)N(C#N)C/C=C\CN(C#N)C(C)=O | 73.8 to 75.2
OC(c1ccccc1)c1cc2ccnc(N(Cc3ccccc3)Cc3ccccc3)c2[nH]1 (centres undefined) | 53 to 61
CC=CCn1c(N(C(C)=O)c2cc(C)cc(C)c2)c(C(C)C)c(=O)[nH]c1=O | 103 to 105
COC(=O)c1ccc2sc(C)cc2c1 | 97 to 98
C=C(C)C(=O)Oc1ccc(S(=O)(=O)ON=C(C#N)c2cccs2)cc1 | 165 to 166
CC(=O)c1c[nH]c2cc(O)ccc12 | 135 to 140
CCC(O)(c1ccc(OCc2ccccc2)cc1)c1cccc(Cl)c1 (centres undefined) | 52 to 53
CCCCOC1OC(CO)C(O)C(O)C1(O)N(Cc1cccc(C)c1C)C(=O)N(CCCl)N=O (centres undefined) | 90 to 92
